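48-hour exposure; five concentrations; linearly interpolated endpoints. GI50: concentration for 50% inhibition of growth. TGI: concentration producing complete growth inhibition.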
Key:
Assay in all cases: DTP human tumour cell line panel, 48 h
[1] = test system: HOP-92 NSCLC
[2] = test system: SK-MEL-5 melanoma
[3] = test system: SF-295 CNS
[4] = test system: OVCAR-5 ovarian
[5] = test system: OVCAR-3 ovarian
[6] = test system: CCRF-CEM leukemia
[7] = test system: SN12C renal
[8] = test system: A549 NSCLC
[9] = test system: OVCAR-4 ovarian
[10] = test system: K-562 leukemia

With `O=C1C(=O)c2ccccc2C(O)=C1C(CCc1ccccc1)C1=C(O)c2ccccc2C(=O)C1=O` the TGI [1] was over 100 µM, the TGI [2] was 30.9 µM and the TGI [3] was over 100 µM. The TGI [4] was over 100 µM, the TGI [5] was over 100 µM and the TGI [6] was over 100 µM. It also gave a TGI [7] of over 100 µM, a TGI [8] of over 100 µM and a TGI [9] of over 100 µM.

`O=C([CH-]C(=O)c1ccccc1)c1ccccc1.O=C([CH-]C(=O)c1ccccc1)c1ccccc1.[Nd+3].[OH-].[OH3+]` showed a GI50 [10] of 3.31 µM, a TGI [10] of 19.1 µM and a GI50 [1] of 13.6 µM. For the same compound, the TGI [1] was 39.7 µM, the GI50 [2] was 3.94 µM and the TGI [2] was 17.2 µM. It also gave a GI50 [3] of 3.95 µM, a TGI [3] of 22.8 µM and a GI50 [4] of 22.3 µM. For the same compound, the TGI [4] was 81.5 µM, the GI50 [5] was 8.31 µM and the TGI [5] was 26.6 µM. The GI50 [7] was 12.6 µM, the TGI [7] was 70.7 µM and the GI50 [8] was 17.2 µM. The TGI [8] was 51.5 µM, the GI50 [9] was 16.4 µM and the TGI [9] was over 100 µM.

`O=C(Oc1ccc(CCl)cc1)c1ccccc1` showed a GI50 [1] of 0.173 µM, a TGI [1] of 0.348 µM and a GI50 [2] of 0.447 µM. It also gave a TGI [2] of 1.64 µM, a GI50 [3] of 0.185 µM and a TGI [3] of 0.543 µM. The GI50 [4] was 0.161 µM, the TGI [4] was 0.302 µM and the GI50 [5] was 0.164 µM. The TGI [5] was 0.304 µM, the GI50 [6] was 0.0335 µM and the TGI [6] was 0.146 µM. It also gave a GI50 [8] of 1.16 µM, a TGI [8] of 2.42 µM and a GI50 [9] of 0.159 µM. For the same compound, the TGI [9] was 0.313 µM.

`COC(=O)c1ccc(N=NN(C)CO)cc1` showed a TGI [10] of over 100 µM, a TGI [2] of over 100 µM and a TGI [3] of over 100 µM. The TGI [4] was over 100 µM, the TGI [5] was over 100 µM and the TGI [6] was over 100 µM. It also gave a TGI [7] of over 100 µM, a TGI [8] of over 100 µM and a TGI [9] of over 100 µM.

`CCOC(=O)C(=O)Nc1c(N(CC)CC)n2ccccc2nc1=O` was tested, and the TGI [10] was over 100 µM, the TGI [1] was over 100 µM and the TGI [2] was over 100 µM. The TGI [4] was over 100 µM, the TGI [5] was over 100 µM and the TGI [6] was over 100 µM. The TGI [7] was over 100 µM and the TGI [8] was over 100 µM.

For `COc1ccc2ccc([Se]c3ccc4ccc(OC)cc4c3)cc2c1`, the TGI [10] was over 100 µM, the TGI [1] was over 100 µM and the TGI [2] was over 100 µM. For the same compound, the TGI [3] was over 100 µM, the TGI [5] was over 100 µM and the TGI [6] was over 100 µM. The TGI [7] was over 100 µM, the TGI [8] was over 100 µM and the TGI [9] was 46.6 µM.

`C/C=C(\C)C(=O)O[C@H]1C=CC(=O)O[C@H]1CNC(=O)[C@H](C)O` was tested, and the GI50 [10] was 22.3 µM, the TGI [10] was over 100 µM and the GI50 [1] was 14.6 µM. The TGI [1] was 28.9 µM, the GI50 [2] was 17 µM and the TGI [2] was 31.3 µM. It also gave a GI50 [3] of 32.6 µM, a TGI [3] of over 100 µM and a GI50 [4] of 19.9 µM. For the same compound, the TGI [4] was 38.3 µM, the GI50 [5] was 17 µM and the TGI [5] was 30.9 µM. It also gave a GI50 [7] of 18.9 µM, a TGI [7] of 40.3 µM and a GI50 [8] of 31.1 µM. The TGI [8] was over 100 µM, the GI50 [9] was 17.3 µM and the TGI [9] was 36.1 µM.

For `COC(=O)c1c(CC#N)cccc1CC#N`, the TGI [10] was over 100 µM, the TGI [1] was over 100 µM and the TGI [3] was over 100 µM. It also gave a TGI [4] of over 100 µM, a TGI [5] of over 100 µM and a TGI [6] of over 100 µM. It also gave a TGI [7] of over 100 µM, a TGI [8] of over 100 µM and a TGI [9] of over 100 µM.

With `Cn1c(=O)c2[nH]c(CS(=O)(=O)Cc3nc4c([nH]3)c(=O)n(C)c(=O)n4C)nc2n(C)c1=O` the TGI [10] was over 100 µM, the TGI [2] was over 100 µM and the TGI [3] was over 100 µM. The TGI [4] was over 100 µM, the TGI [5] was over 100 µM and the TGI [6] was over 100 µM. For the same compound, the TGI [7] was over 100 µM, the TGI [8] was over 100 µM and the TGI [9] was over 100 µM.

In the case of `COC(=O)C(Nc1ccc(OC)cc1)c1ccccc1` (stereo not given), the TGI [10] is reported as over 100 µM, the TGI [2] is reported as over 100 µM and the TGI [3] is reported as over 100 µM. The TGI [4] was over 100 µM, the TGI [5] was over 100 µM and the TGI [6] was over 100 µM. It also gave a TGI [7] of over 100 µM and a TGI [8] of over 100 µM.

`O=S1(=O)C[C@@H](O)[C@H](O)CS1` was tested, and the TGI [10] was over 100 µM, the TGI [1] was over 100 µM and the TGI [2] was over 100 µM. For the same compound, the TGI [3] was over 100 µM, the TGI [4] was over 100 µM and the TGI [5] was over 100 µM. The TGI [7] was over 100 µM, the TGI [8] was over 100 µM and the TGI [9] was over 100 µM.

Work on `O=[N+]([O-])/C=C/c1c[nH]c2ccccc12` yielded a GI50 [10] of 21.7 µM, a TGI [10] of 61 µM and a GI50 [2] of 16 µM. The TGI [2] was 32.1 µM, the GI50 [3] was 14 µM and the TGI [3] was 30.6 µM. It also gave a GI50 [4] of 17.8 µM, a TGI [4] of 35.2 µM and a GI50 [5] of 15.4 µM. For the same compound, the TGI [5] was 33 µM, the GI50 [6] was 15.8 µM and the TGI [6] was over 100 µM. The GI50 [7] was 17.8 µM, the TGI [7] was 37.1 µM and the GI50 [8] was 14 µM. The TGI [8] was 31.7 µM, the GI50 [9] was 12.4 µM and the TGI [9] was 26.8 µM.

`COc1ccc(-c2nc(-c3ccccc3)c(-c3ccccc3)n2C2CC2)cc1OC1CCCC1` was tested, and the GI50 [10] was 11.5 µM, the TGI [10] was over 165 µM and the GI50 [2] was 16.7 µM. It also gave a TGI [2] of 125 µM, a GI50 [3] of 67.5 µM and a TGI [3] of over 165 µM. For the same compound, the GI50 [4] was over 165 µM, the TGI [4] was over 165 µM and the GI50 [5] was 102 µM. The TGI [5] was over 165 µM, the GI50 [6] was 33.3 µM and the TGI [6] was over 165 µM. The GI50 [7] was 128 µM, the TGI [7] was over 165 µM and the GI50 [8] was 48.7 µM. The TGI [8] was over 165 µM, the GI50 [9] was 97.4 µM and the TGI [9] was over 165 µM.

`O=c1cc(-c2ccccc2)nc2n1CCN2Cc1ccccc1` showed a GI50 [10] of 34.7 µM, a TGI [10] of 90.3 µM and a GI50 [1] of 42.8 µM. It also gave a TGI [1] of over 100 µM, a GI50 [2] of 19.9 µM and a TGI [2] of 37.4 µM. For the same compound, the GI50 [3] was 21.1 µM, the TGI [3] was 72.2 µM and the GI50 [5] was 27.3 µM. The TGI [5] was 99.6 µM, the GI50 [6] was 16.2 µM and the TGI [6] was 42.8 µM. The GI50 [7] was 32.2 µM, the TGI [7] was over 100 µM and the GI50 [8] was 35.2 µM. The TGI [8] was over 100 µM, the GI50 [9] was 74.4 µM and the TGI [9] was over 100 µM.

Compound `COc1cc(/C=C/C(=O)c2ccc(Cl)cc2)ccc1OS(=O)(=O)c1ccc(C)cc1` has a GI50 [10] of 2.87 µM, a TGI [10] of 11.3 µM and a GI50 [2] of 12.4 µM. For the same compound, the TGI [2] was 25.1 µM, the GI50 [3] was 9.27 µM and the TGI [3] was 26.2 µM. For the same compound, the GI50 [4] was 16.7 µM, the TGI [4] was 33.2 µM and the GI50 [5] was 3.57 µM. For the same compound, the TGI [5] was 12.6 µM, the GI50 [6] was 2.46 µM and the TGI [6] was 7.19 µM. It also gave a GI50 [7] of 10 µM, a TGI [7] of 34.8 µM and a GI50 [8] of 18.4 µM. The TGI [8] was over 100 µM, the GI50 [9] was 12.8 µM and the TGI [9] was 80.1 µM.

With `O=C(O)C12C3CCCC1C2CC3` (stereo not given) the TGI [10] was over 100 µM, the TGI [1] was over 100 µM and the TGI [2] was over 100 µM. For the same compound, the TGI [3] was over 100 µM, the TGI [4] was over 100 µM and the TGI [5] was over 100 µM. The TGI [6] was over 100 µM, the TGI [7] was over 100 µM and the TGI [8] was over 100 µM.

Compound `O=C1C(=O)N(c2ccc(Cl)c(Cl)c2)C(=O)C(=O)C1c1nc2ccccc2o1` has a TGI [10] of over 100 µM, a TGI [1] of over 100 µM and a TGI [3] of over 100 µM. The TGI [4] was over 100 µM, the TGI [5] was over 100 µM and the TGI [7] was over 100 µM. It also gave a TGI [8] of over 100 µM and a TGI [9] of over 100 µM.

`CC(=O)OC(C)(C)/C=C/C(=O)[C@](C)(O)[C@H]1[C@H](O)C[C@@]2(C)[C@@H]3CC=C4[C@@H](C[C@H](O)C(=O)C4(C)C)[C@]3(C)C(=O)C[C@]12C` showed a TGI [10] of 16.8 µM, a TGI [2] of 0.135 µM and a TGI [3] of 0.0304 µM. The TGI [4] was 13.8 µM, the TGI [5] was 0.17 µM and the TGI [6] was 0.423 µM. The TGI [7] was 2.99 µM, the TGI [8] was 11.4 µM and the TGI [9] was under 0.01 µM.

Source: PubChem BioAssay (NCI)
